Reference: patent US9567339B2, “Primary carboxamides as BTK inhibitors” (AbbVie Inc., priority 2013, dated 2017)

Target: BTK, recombinant human catalytic domain (aa 393-659) (Homo sapiens (Human), UniProt Q06187)
Test: In vitro BTK kinase activity measured by time-resolved fluorescence resonance energy transfer (trFRET)
Assay type: biochemical
Conditions: read-out: Btk IC50

Chain of BTK, recombinant human catalytic domain (aa 393-659) (Q06187 393-659): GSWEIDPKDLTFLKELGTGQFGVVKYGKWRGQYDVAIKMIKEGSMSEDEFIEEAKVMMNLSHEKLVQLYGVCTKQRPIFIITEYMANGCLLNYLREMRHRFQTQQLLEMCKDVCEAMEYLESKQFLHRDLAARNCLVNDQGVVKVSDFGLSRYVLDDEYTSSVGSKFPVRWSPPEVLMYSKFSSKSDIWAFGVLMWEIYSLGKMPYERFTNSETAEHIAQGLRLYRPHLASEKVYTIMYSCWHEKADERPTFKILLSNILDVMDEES

Row | IC50 | Structure (SMILES)
1 | < 100 nM | Cc1c(-c2ccc(C(N)=O)c3[nH]c(C4=CCNCC4)cc23)cccc1-n1cnc2ccccc2c1=O [G.1.1, 4-(2-methyl-3-(4-oxoquinazolin-3(4H)-yl)phenyl)-2-(1,2,3,6-tetrahydropyridin-4-yl)-1H-indole-7-carboxamide]
2 | < 100 nM | C=C(CN)C(=O)Nc1cccc(-c2ccc(C(N)=O)c3[nH]ccc23)c1 [G.1.2]
3 | < 100 nM | C=C(CNC)C(=O)Nc1cccc(-c2ccc(C(N)=O)c3[nH]ccc23)c1 [G.1.3]
4 | < 100 nM | Cc1c(-c2ccc(C(N)=O)c3[nH]c(C4=CCN(C)CC4)cc23)cccc1-n1cnc2ccccc2c1=O [H.1.1]
5 | < 100 nM | Cc1c(NCc2nccs2)cccc1-c1ccc(C(N)=O)c2[nH]c(C3=CCN(S(C)(=O)=O)CC3)cc12 [H.2.1, 4-(2-methyl-3-(thiazol-2-ylmethylamino)phenyl)-2-(1-(methylsulfonyl)-1,2,3,6-tetrahydropyridin-4-yl)-1H-indole-7-carboxamide]
6 | 100 to 1000 nM | Cc1c(NC(=O)/C=C/CN2CCCCC2)cccc1-c1ccc(C(N)=O)c2[nH]ccc12 [J.1.1]
7 | 1000 to 10000 nM | COCCNC/C=C/C(=O)Nc1cccc(-c2ccc(C(N)=O)c3[nH]ccc23)c1C [J.1.3]
8 | 100 to 1000 nM | Cc1c(NC(=O)/C=C/CNC2CC2)cccc1-c1ccc(C(N)=O)c2[nH]ccc12 [J.1.4]
9 | 1000 to 10000 nM | Cc1c(NC(=O)/C=C/CN2CCOCC2)cccc1-c1ccc(C(N)=O)c2[nH]ccc12 [J.1.5]
10 | 1000 to 10000 nM | Cc1c(NC(=O)/C=C/CN2CCN(C)CC2)cccc1-c1ccc(C(N)=O)c2[nH]ccc12 [J.1.6]
11 | 100 to 1000 nM | Cc1c(NC(=O)/C=C/CN(C)C)cccc1-c1cnc(C(N)=O)c2[nH]ccc12 [J.2.1]
12 | 100 to 1000 nM | Cc1cc2c(N(C)C3CN(C#N)C3)ccc(C(N)=O)c2[nH]1 [J.3.1]
13 | < 100 nM | Cc1c(-c2ccc(C(N)=O)c3[nH]c(-c4cnn(C[C@H](O)CO)c4)cc23)cccc1-n1cnc2ccccc2c1=O [K.1.1]
14 | < 100 nM | Cn1cc(-c2cc3c(-c4cccc(-n5cnc6ccc(F)cc6c5=O)c4CO)ccc(C(N)=O)c3[nH]2)cn1 [M.1.1]
15 | < 100 nM | Cc1c(-c2ccc(C(N)=O)c3[nH]c(-c4cnn(CCO)c4)cc23)cccc1-n1cnc2ccccc2c1=O [M.1.2]
16 | 100 to 1000 nM | Cc1c(NC(=O)c2ccc(C(F)F)cc2)cccc1-c1ccc(C(N)=O)c2[nH]ccc12 [O.1.1]
17 | 1000 to 10000 nM | Cc1c(NC2COC2)cccc1-c1ccc(C(N)=O)c2[nH]ccc12 [O.1.2]
18 | < 100 nM | CS(=O)(=O)N1CC=C(c2cc3c(N4CCC[C@@H](N5CCn6ccnc6C5=O)C4)ccc(C(N)=O)c3[nH]2)CC1 [O.1.3*]
19 | < 100 nM | CS(=O)(=O)N1CC=C(c2cc3c(N4CCC[C@@H](n5ccn6ccnc6c5=O)C4)ccc(C(N)=O)c3[nH]2)CC1 [O.1.4*]
20 | < 100 nM | Cc1nc(C(=O)NC2CCCN(c3ccc(C(N)=O)c4[nH]c(C5=CCN(S(C)(=O)=O)CC5)cc34)C2)co1 (stereo not drawn) [O.1.5*]
21 | 1000 to 10000 nM | NC(=O)c1ccc(N2CCC[C@@H](NC(=O)Nc3nccs3)C2)c2cc[nH]c12 [O.1.7*]
22 | 1000 to 10000 nM | NC(=O)c1ccc(N2CCC[C@@H](NC(=O)c3ccc(C(F)(F)F)cc3)C2)c2cc[nH]c12 [O.1.8*]
23 | 1000 to 10000 nM | COc1ccc(C(=O)N[C@@H]2CCCN(c3ccc(C(N)=O)c4[nH]ccc34)C2)cc1 [O.1.9*]

Same assay, conditions: trFRET, 0.001 mM ATP, biotin-TYR1 peptide substrate; read-out: Btk IC50

Row | Structure (SMILES) | IC50
24 | C=CC(=O)Nc1cc(NCc2nccs2)cc(-c2ccc(C(N)=O)c3[nH]c(C4=CCN(S(C)(=O)=O)CC4)cc23)c1 [Example 6, 4-(3-Acrylamido-5-(thiazol-2-ylmethylamino)phenyl)-2-(1-(methylsulfonyl)-1,2,3,6-tetrahydropyridin-4-yl)-1H-indole-7-carboxamide] | < 100 nM
25 | C/C(O)=C(/C#N)C(=O)Nc1cccc(-c2ccc(C(N)=O)c3[nH]ccc23)c1 [Example 7, (E)-4-(3-(2-Cyano-3-hydroxybut-2-enamido)phenyl)-1H -indole-7-carboxamide] | 1000 to 10000 nM
26 | CS(=O)(=O)N1CC=C(c2cc3c(N4CCC[C@@H](N5CCCCC5=O)C4)ccc(C(N)=O)c3[nH]2)CC1 [Example 12, (R)-2-(1-(Methylsulfonyl)-1,2,3,6-tetrahydropyridin-4-yl)-4-(2-oxo-1,3′-bipiperidin-1′-yl)-1H-indole-7-carboxamide] | 100 to 1000 nM
27 | CS(=O)(=O)N1CC=C(c2cc3c(N4CCC[C@@H](N5CCc6ccccc6C5=O)C4)ccc(C(N)=O)c3[nH]2)CC1 [Example 13, (R)-2-(1-(Methylsulfonyl)-1,2,3,6-tetrahydropyridin-4-yl)-4-(3-(1-oxo-3,4-dihydroisoquinolin-2(1H)-yl)piperidin-1-yl)-1H-indole-7-carboxamide] | < 100 nM
28 | CS(=O)(=O)N1CC=C(c2cc3c(N4CCC[C@@H](NC(=O)c5nccs5)C4)ccc(C(N)=O)c3[nH]2)CC1 [Example 13A, (R)—N-(1-(7-Carbamoyl-2-(1-(methylsulfonyl)-1,2,3,6-tetrahydropyridin-4-yl)-1H-indol-4-yl)piperidin-3-yl)thiazole-2-carboxamide] | < 100 nM
29 | Cc1c(-c2ccc(C(N)=O)c3[nH]c(-c4cnn(C)c4)nc23)cccc1-n1cnc2ccccc2c1=O [Example 14, 2-(1-Methyl-1H-pyrazol-4-yl)-4-(2-methyl-3-(4-oxoquinazolin-3(4H)-yl)phenyl)-1H-benzo[d]imidazole-7-carboxamide] | 100 to 1000 nM
30 | N#CCNC(=O)c1cccc(-c2ccc(C(N)=O)c3[nH]ccc23)c1 [Example 15, 4-(3-((Cyanomethyl)carbamoyl)phenyl)-1H-indole-7-carboxamide] | 1000 to 10000 nM
31 | Cc1c(N)cccc1-c1ccc(C(N)=O)c2[nH]ccc12 [Example 16, 4-(3-Amino-2-methylphenyl)-1H-indole-7-carboxamide] | 1000 to 10000 nM
32 | C=CC(=O)Nc1cccc(-c2cnc(C(N)=O)c3[nH]ccc23)c1C [Example 17, 4-(3-Acrylamido-2-methylphenyl)-1H-pyrrolo[2,3-c]pyridine-7-carboxamide] | < 100 nM
33 | C=CC(=O)Nc1cccc(-c2ccc(C(N)=O)c3[nH]ncc23)c1 [Example 18, 4-(3-Acrylamidophenyl)-1H-indazole-7-carboxamide] | < 100 nM
34 | C=CC(=O)Nc1cccc(-c2ccc(C(N)=O)c3[nH]c(C)cc23)c1 [Example 19, 4-(3-Acrylamidophenyl)-2-methyl-1H-indole-7-carboxamide] | < 100 nM
35 | C=CC(=O)Nc1cccc(-c2ccc(C(N)=O)c3[nH]c(CC)cc23)c1 [Example 20, 4-(3-Acrylamidophenyl)-2-ethyl-1H-indole-7-carboxamide] | < 100 nM
36 | Cc1c(N)cccc1-c1ccc(C(N)=O)c2[nH]c(C3=CCC(F)(F)CC3)cc12 [Example 21, 4-(3-Amino-2-methylphenyl)-2-(4,4-difluorocyclohex-1-enyl)-1H-indole-7-carboxamide] | < 100 nM
37 | C=CC(=O)Nc1cccc(-c2ccc(C(N)=O)c3[nH]c(CCOCC)cc23)c1 [Example 22, 4-(3-Acrylamidophenyl)-2-(2-ethoxyethyl)-1H-indole-7-carboxamide] | < 100 nM
38 | C=CC(=O)Nc1cccc(-c2ccc(C(N)=O)c3[nH]c(CCO)cc23)c1 [Example 23, 4-(3-Acrylamidophenyl)-2-(2-hydroxyethyl)-1H-indole-7-carboxamide] | < 100 nM
39 | C=CC(=O)N1CC(N(C)c2ccc(C(N)=O)c3[nH]ccc23)C1 [Example 24, 4-((1-Acryloylazetidin-3-yl)(methyl)amino)-1H-indole-7-carboxamide] | < 100 nM
40 | C=CC(=O)N1CCCC(c2ccc(C(N)=O)c3[nH]ccc23)C1 (stereo not drawn) [Example 25, 4-(1-Acryloylpiperidin-3-yl)-1H-indole-7-carboxamide] | 100 to 1000 nM
41 | C=CC(=O)N1CCCC(c2ccc(C(N)=O)c3[nH]c(-c4cnn(C)c4)cc23)C1 (stereo not drawn) [Example 26, 4-(1-Acryloylpiperidin 3-yl)-2-(1-methyl-1H-pyrazol-4-yl)-1H-indole-7-carboxamide] | < 100 nM
42 | C=CC(=O)N1CC(Oc2ccc(C(N)=O)c3[nH]ccc23)C1 [Example 27, 4-((1-Acryloylazetidin-3-yl)oxy)-1H-indole-7-carboxamide] | < 100 nM
43 | C=CC(=O)N1CC(N(C)c2cnc(C(N)=O)c3[nH]ccc23)C1 [Example 29, 4-((1-Acryloylazetidin-3-yl)(methyl)amino)-1H-pyrrolo[2,3-c]pyridine-7-carboxamide] | < 100 nM
44 | NC(=O)c1ccc(I)c2cc(-c3cccnc3)[nH]c12 [F.1, 4-iodo-2-(pyridin-3-yl)-1H-indole-7-carboxamide] | 100 to 1000 nM

Continued, values first:

Row | IC50 | Structure (SMILES)
45 | < 100 nM | Cc1c(-c2ccc(C(N)=O)c3[nH]c(C4=CCNC4)cc23)cccc1-n1cnc2ccccc2c1=O [G.1, 2-(2,5-Dihydro-1H-pyrrol-3-yl)-4-(2-methyl-3-(4-oxoquinazolin-3(4H)-yl)phenyl)-1H-indole-7-carboxamide]
46 | < 100 nM | Cc1c(-c2ccc(C(N)=O)c3[nH]c(C4=CCN(C)C4)cc23)cccc1-n1cnc2ccccc2c1=O [H.1, 2-(1-Methyl-2,5-dihydro-1H-pyrrol-3-yl)-4-(2-methyl-3-(4-oxoquinazolin-3(4H)-yl)phenyl)-1H-indole-7-carboxamide]
47 | < 100 nM | C=CS(=O)(=O)Nc1cccc(-c2ccc(C(N)=O)c3[nH]ccc23)c1 [I.1, 4-(3-(Vinylsulfonamido)phenyl)-1H-indole-7-carboxamide]
48 | 100 to 1000 nM | Cc1c(NC(=O)/C=C/CN(C)C)cccc1-c1ccc(C(N)=O)c2[nH]ccc12 [J.1, (E)-4-(3-(4-(Dimethylamino)but-2-enamido)-2-methylphenyl)-1H-indole-7-carboxamide]
49 | < 100 nM | Cc1c(-c2ccc(C(N)=O)c3[nH]c(-c4cnn(C[C@@H](O)CO)c4)cc23)cccc1-n1cnc2ccccc2c1=O [K.1]
50 | 100 to 1000 nM | CC(=O)N1CCC(c2cc3c(-c4cccc(N)c4C)ccc(C(N)=O)c3[nH]2)CC1 [L.1, 2-(1-Acetylpiperidin-4-yl)-4-(3-amino-2-methylphenyl)-1H-indole-7-carboxamide]
51 | < 100 nM | Cn1cc(-c2cc3c(-c4cccc(NC(=O)c5nccs5)c4CO)ccc(C(N)=O)c3[nH]2)cn1 [M.1, N-(3-(7-carbamoyl-2-(1-methyl-1H-pyrazol-4-yl)-1H-indol-4-yl)-2-(hydroxymethyl)phenyl)thiazole-2-carboxamide]
